Data from patent publication US10576085B2, “Substituted aminopurine compounds, compositions thereof, and methods of treatment therewith” (Signal Pharmaceuticals, LLC, priority 2016, dated 2020).

How the values were obtained:
Type in all cases: cell-based
[1] = tested on: MAPK, β-catenin, and YAP; assay: MAPK, WNT/β-catenin, Hippo/YAP pathway markers (Western blot, qPCR) in SW48
Method: Compound 1 modulation of MAPK, WNT/β-catenin, and Hippo/YAP pathway markers was evaluated by standard Western blotting. LOX-IMVI, SW48, and Colo-205 cells were plated in 6-well plates at a density of 250,000 cells per well and were allowed to attach overnight. Compound 1 was added to cells at concentrations of 0.03, 0.1, 0.3, 1, and 3 μM for durations of 2, 8, and 24 hours. […] The cell lysates were heated in sodium dodecyl sulfate (SDS)-sample buffer and 40 μg of cell lysate per condition were loaded onto gels and separated using SDS polyacrylamide gel electrophoresis (PAGE). Protein was transferred to nitrocellulose membrane, and immunoblotted with anti DUSP4, DUSP6, cMyc, Cyclin D1, YAP, AXIN2, HDACS (phospho S498), and β-actin antibodies. Membranes were scanned on the Licor Odyssey system.
Compound 1 modulation of MAPK, WNT/β-catenin, and Hippo/YAP pathway genes was evaluated by real-time (RT)-qPCR. […], SW48, and Colo-205 cells were plated in 96-well plates at a density of 20,000 cells per well and were allowed to attach overnight. Compound 1 was added to cells at half log concentrations from 1 nM to 10 μM for durations of 2, 8, and 24 hours. Cells were harvested using the TaqMan Gene Expression Cells-to-CT Kit according to the product manual. […]

[2] = tested on: IL-2 and IFNγ production by PBMC-derived T cells; assay: T cell activation: compound-treated KARPAS-299 co-cultured with SEB-stimulated PBMC, IL-2 and IFNγ (Mesoscale)
Method: To determine if Compound 1 down-regulation of PD-L1 enhances T cell activation, compound-treated KARPAS-299 cancer cells were co-cultured with PBMC-derived T cells stimulated with low concentrations of super antigen (SEB). KARPAS-299 cells were treated with DMSO (D) or Compound 1 at indicated concentrations for 48 h. PBMC from healthy donors were treated with or without 20 ng/ml SEB for 48 h. After wash with PBS, the PBMCs were incubated with the cancer cells for 24 h and the supernatants were collected to measure IL-2 and IFNγ using Mesoscale assays.
Supernatant levels of IL-2 and IFNγ were used as functional markers of T cell activation. […] The increased levels of IL-2 and IFNγ in Compound 1-treated cancer cells were similar to the levels observed with treatment of anti-PD-L1 (Ultra-LEAF™ from Biolegend).

[3] = tested on: WI38 VA13 cells expressing 8×GTIIC-luciferase; assay: Viability assay (Cell Titer Fluor); conditions: 24 or 72 hours; across three assays
Method: In parallel 10,000 WI38 VA13 cells expressing 8×GTIIC-luciferase were seeded in each well of a black-walled 96-well plate. After 16-20 hours cells were treated with compound for 24 or 72 hours. At this time the serum and compound containing media was removed and replaced with 100 μl serum free media and 100 μl Cell Titer Fluor (Promega). The plate was incubated for 2 hours at 37° C. before reading fluorescence output. This assay is based on measurement of live-cell protease activity. The viability assay was performed to confirm that any effects of compounds on TEAD reporter were not the result of compound effects on viability. This assay was performed 3 times for Compound 1 and twice for Trametinib.

[4] = tested on: HCT-116 (colo) cells; assay: Long term colony assay; conditions: up to 8 weeks
Method: (§1) Compound 1 was assessed for its ability to inhibit the colony formation of cancer cells via a long-term colony forming assay. Cells and compounds were added to 96-well plates and were monitored for up to 8 weeks for the formation of colonies. Compound and media were replenished every 1 week throughout the course of the assay. Colony formation was detected via imaging at 4× on the IncuCyte ZOOM System. […] (FIG. 23A-23D).

[5] = tested on: Hep3B (HCC) cells; assay: Long term colony assay; conditions: up to 8 weeks
Method: as §1

[6] = tested on: AGS (gastric) cells; assay: Long term colony assay
Method: as §1

[7] = tested on: SW48 (colo) cells; assay: Long term colony assay; conditions: up to 8 weeks
Method: as §1

[8] = tested on: beta-catenin and YAP target genes (Axin2, CTGF, AREG); assay: Beta-catenin and YAP target genes, qPCR, Colo 205
Method: Cellular activity against beta-catenin and YAP target genes by Compound 1 was evaluated. Colon cancer cell line Colo 205 (BRAF V600E) cultures were treated with DMSO or increasing concentrations of Compound 1 for 2, 8 or 24 h. RNAs were extracted using Cell-To-CT kit and quantitative PCR was performed with probes specific for Axin2, CTGF, and AREG. Specific probes for β-actin were used for normalization.

[9] = tested on: HT29; assay: Proliferation, CellTiter-Glo, 72 h

## C[C@]1(C(N)=O)CC[C@@H](n2c(Nc3c(Cl)cc(Cl)cc3Cl)nc3cnc(N[C@@H]4CCOC[C@H]4F)nc32)CC1 [Compound 1, cis-4-[2-{[(3S,4R)-3-fluorooxan-4-yl]amino}-8-(2,4,6-trichloroanilino)-9H-purin-9-yl]-1-methyl cyclohexane-1-carboxamide]
[1]; BRAF and CTNNB1 mutant cell line SW48 (FIG. 20)
  Modulation of MAPK, β-catenin, and YAP: modulates MAPK, β-catenin, and YAP
[1]; SW48 (FIGS. 21A-21B)
  Target gene expression controlled by MAPK, β-catenin, and YAP: modulates target gene expression
[2]; SEB 20 ng/ml, Compound 1-treated KARPAS-299 co-cultured with PBMC
  IL-2 and IFNγ production: increased levels of both IL-2 and IFNγ production
[2]; absence of SEB
  IL-2 and IFNγ production: produced little IL-2 or IFNγ
[3]
  Viability: not reproducibly affected
[4]
  Inhibition of colony formation vs MEK inhibitors (trametinib) and ERK inhibitors (GDC0994): greater levels of inhibition than seen with treatment with MEK inhibitors or ERK inhibitors
[5]
  Inhibition of colony formation vs MEK inhibitors (trametinib) and ERK inhibitors (GDC0994): greater levels of inhibition than seen with treatment with MEK inhibitors or ERK inhibitors
[6]; AGS cells resistant to MEK inhibitor trametinib
  Colony formation of AGS cells resistant to trametinib: inhibit colony formation
[6]; AGS, up to 8 weeks
  Inhibition of colony formation vs MEK inhibitors (trametinib) and ERK inhibitors (GDC0994): greater levels of inhibition than seen with treatment with MEK inhibitors or ERK inhibitors
[7]
  Inhibition of colony formation vs MEK inhibitors (trametinib) and ERK inhibitors (GDC0994): greater levels of inhibition than seen with treatment with MEK inhibitors or ERK inhibitors
[8]; Colo 205
  Axin2 RNA: increased Axin2 RNA
[8]; Colo 205 (BRAF V600E), 2, 8 and 24 hr
  Expression of Hippo/YAP target genes (CTGF, AREG): significantly reduced
[9]
  Mode of growth effect (cytotoxic / cytostatic): cytostatic
